In BindingDB's records for doi:10.1124/jpet.104.069260 (University of Texas At Austin, 2004):

Molecular target: Sodium-dependent serotonin transporter (Homo sapiens, UniProt P31645)
Sequence (P31645 whole entry): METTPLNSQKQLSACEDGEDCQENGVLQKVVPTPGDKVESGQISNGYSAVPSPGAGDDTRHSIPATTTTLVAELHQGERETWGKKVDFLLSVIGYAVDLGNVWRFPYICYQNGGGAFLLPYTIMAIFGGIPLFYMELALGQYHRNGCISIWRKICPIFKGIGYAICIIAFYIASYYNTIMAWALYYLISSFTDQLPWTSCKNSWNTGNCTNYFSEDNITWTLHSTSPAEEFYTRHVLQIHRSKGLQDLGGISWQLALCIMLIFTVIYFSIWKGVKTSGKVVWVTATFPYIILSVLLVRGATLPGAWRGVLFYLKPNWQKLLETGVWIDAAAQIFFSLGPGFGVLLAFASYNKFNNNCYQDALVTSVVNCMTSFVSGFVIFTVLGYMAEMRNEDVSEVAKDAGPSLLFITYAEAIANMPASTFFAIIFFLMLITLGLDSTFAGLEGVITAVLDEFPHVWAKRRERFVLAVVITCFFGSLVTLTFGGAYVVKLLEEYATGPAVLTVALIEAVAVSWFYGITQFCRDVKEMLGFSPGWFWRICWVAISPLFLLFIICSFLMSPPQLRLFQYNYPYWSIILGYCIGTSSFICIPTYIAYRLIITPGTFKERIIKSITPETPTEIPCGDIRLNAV

Structure (SMILES): CC(N)Cc1ccc2c(c1)OCO2 (configuration not stated)
- Ki: > 10 µM

Structure (SMILES): CN[C@@H](C)Cc1ccc2c(c1)OCO2 [DL-(3,4-Methylenedioxy)methamphetamine]
- Ki: > 10 µM
